In brackets after ≈: the same amount, converted by molar mass. Activity calls are given as the source filed them. The rule behind the calls is not given here.
Tests used:
Escherichia coli [1] = assay: Antibacterial activity against colistin resistant Escherichia coli NCTC 13846 harboring mcr-1 gene assessed as inhibition of bacterial growth incubated for 18 hrs; format: functional; conditions: read-out: MIC100
Escherichia coli [2] = assay: Antibacterial activity against Escherichia coli ATCC 25922 infected in cyclophosphamide immunosuppressed mouse thigh infection model at 30 to 90 mg/kg, iv administered every 2 hrs starting from 1 hr post infection and measured 25 hrs post infection; format: functional, organism-based; conditions: dose 30-90 mg/kg, time 24.0 hrs
Escherichia coli [3] = assay: Antibacterial activity against Escherichia coli ATCC 25922 harboring hldE knock-out assessed as inhibition of bacterial growth incubated for 18 hrs; format: functional; conditions: read-out: MIC100
Klebsiella pneumoniae [4] = assay: Antibacterial activity against Klebsiella pneumoniae ATCC 13883 assessed as inhibition of bacterial growth incubated for 18 hrs in presence of 2 mM CaCl2; format: functional, organism-based
Escherichia coli [5] = assay: Antibacterial activity against wild-type Escherichia coli ATCC 25922 assessed as inhibition of bacterial growth incubated for 18 hrs in presence of 50% heat inactivated human serum; format: functional; conditions: read-out: MIC100
Escherichia coli [6] = assay: Antibacterial activity against wild-type Escherichia coli ATCC 25922 assessed as inhibition of bacterial growth by measuring fold increase in MIC incubated for 18 hrs in presence of 50% heat inactivated human serum relative to control; format: functional
[7] = Chemical stability of compound in glutathione; format: physicochemical
Serratia marcescens = assay: Antibacterial activity against intrinsically colistin resistant Serratia marcescens ATCC 13880 assessed as inhibition of bacterial growth incubated for 18 hrs; format: functional; conditions: read-out: MIC100
Acinetobacter baumannii = assay: Antibacterial activity against wild-type Acinetobacter baumannii ATCC 19606 assessed as inhibition of bacterial growth incubated for 20 hrs; format: functional; conditions: read-out: MIC100
Escherichia coli [8] = assay: Antibacterial activity against Escherichia coli Swiss 7 harboring mcr-1 gene assessed as inhibition of bacterial growth incubated for 18 hrs; format: functional; conditions: read-out: MIC100
Lipopolysaccharide (LPS) = assay: Binding affinity to Pseudomonas aeruginosa LPS assessed as dissociation constant by ITC analysis; format: subcellular
Klebsiella pneumoniae [9] = assay: Antibacterial activity against Klebsiella pneumoniae ATCC 43816 infected in mouse urinary tract infection model assessed as reduction in bacterial burden in urine at <10 mg/kg, iv administered every 4 hrs and measured after 26 hrs; format: functional, organism-based
Escherichia coli [10] = assay: Antibacterial activity against Escherichia coli ATCC 25922 assessed as inhibition of bacterial growth incubated for 18 hrs in presence of 150 mM NaCl; format: functional, organism-based
[11] = Toxicity in naive mouse at 5 to 15 mg/kg, iv administered as single dose every 4 hrs for 24 hrs; format: organism-based; conditions: in vivo, dose 5-15 mg/kg
[12] = AUClast in Swiss mouse plasma at 10 mg/kg, iv administered as single bolus dose and measured upto 24 hrs by LC-MS/MS analysis; format: ADME, organism-based
Escherichia coli [13] = assay: Antibacterial activity against Escherichia coli panel (100 strains) assessed as inhibition of bacterial growth; format: functional
[14] = Cmax in Swiss mouse plasma at 10 mg/kg, iv administered as single bolus dose and measured upto 24 hrs by LC-MS/MS analysis; format: ADME, organism-based
Escherichia coli [15] = assay: Antibacterial activity against Escherichia coli ATCC 25922 assessed as inhibition of bacterial growth incubated for 18 hrs in presence of 5 mM KCl; format: functional, organism-based
Cytochrome P450 3A4 = Cytochrome P450 3A4 (Homo sapiens, UniProt P08684); assay: Induction of CYP3A4 (unknown origin); format: ADME
Chain of Cytochrome P450 3A4 (P08684 whole entry): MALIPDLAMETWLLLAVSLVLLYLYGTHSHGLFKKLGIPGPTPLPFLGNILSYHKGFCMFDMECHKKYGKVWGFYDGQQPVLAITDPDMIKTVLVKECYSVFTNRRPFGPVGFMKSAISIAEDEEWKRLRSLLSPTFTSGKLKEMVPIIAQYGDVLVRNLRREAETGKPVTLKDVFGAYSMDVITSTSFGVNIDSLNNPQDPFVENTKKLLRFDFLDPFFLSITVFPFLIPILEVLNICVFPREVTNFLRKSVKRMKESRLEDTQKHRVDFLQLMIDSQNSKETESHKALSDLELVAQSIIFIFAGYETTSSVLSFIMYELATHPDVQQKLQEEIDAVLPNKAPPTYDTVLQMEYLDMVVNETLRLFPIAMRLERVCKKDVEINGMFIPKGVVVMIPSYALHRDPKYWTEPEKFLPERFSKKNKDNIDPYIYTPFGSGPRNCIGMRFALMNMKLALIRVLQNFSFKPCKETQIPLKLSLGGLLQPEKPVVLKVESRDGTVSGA

[16] = Cytotoxicity against human HepG2 cells incubated for 40 hrs by celltiter-glo luminescent cell viability assay; format: toxicity, cell-based
[17] = Clearance in rat microsomes; format: ADME, Microsome
Escherichia coli [18] = assay: Antibacterial activity against Escherichia coli ATCC 35218 infected in Swiss albino mouse septicemia model assessed as log10 reduction in bacterial burden below stasis in kidney at 20 mg/kg, iv administered twice every 2 hrs and measured after 5 hrs; format: functional
Staphylococcus aureus = assay: Antibacterial activity against wild type Staphylococcus aureus USA300 assessed as inhibition of bacterial growth incubated for 18 hrs; format: functional; conditions: read-out: MIC100
[19] = Drug uptake in Escherichia coli ATCC 25922 at 10 uM incubated for 10 mins by LC-MS/MS analysis; format: ADME
[20] = Hemolytic activity in human red blood cells at 400 ug/ml incubated for 45 mins by spectrophotometric analysis relative to control; format: toxicity, cell-based, Erythrocyte; conditions: red blood cells (erythrocytes), at 400 µg/mL, read-out: Activity
[21] = Drug localization in cytoplasm of Escherichia coli ATCC 25922 at 10 uM incubated for 10 mins by LC-MS/MS analysis; format: ADME, subcellular
[22] = Chemical stability of compound at pH 2; format: physicochemical; conditions: buffer
Klebsiella aerogenes = assay: Antibacterial activity against Enterobacter aerogenes ATCC 13048 assessed as inhibition of bacterial growth incubated for 18 hrs; format: functional; conditions: read-out: MIC100
Cytochrome P450 1A2 = molecular target: T1, Cytochrome P450 1A2 (Homo sapiens, UniProt P05177); assay: Inhibition of CYP1A2 (unknown origin); format: ADME
T1 sequence (P05177 whole entry): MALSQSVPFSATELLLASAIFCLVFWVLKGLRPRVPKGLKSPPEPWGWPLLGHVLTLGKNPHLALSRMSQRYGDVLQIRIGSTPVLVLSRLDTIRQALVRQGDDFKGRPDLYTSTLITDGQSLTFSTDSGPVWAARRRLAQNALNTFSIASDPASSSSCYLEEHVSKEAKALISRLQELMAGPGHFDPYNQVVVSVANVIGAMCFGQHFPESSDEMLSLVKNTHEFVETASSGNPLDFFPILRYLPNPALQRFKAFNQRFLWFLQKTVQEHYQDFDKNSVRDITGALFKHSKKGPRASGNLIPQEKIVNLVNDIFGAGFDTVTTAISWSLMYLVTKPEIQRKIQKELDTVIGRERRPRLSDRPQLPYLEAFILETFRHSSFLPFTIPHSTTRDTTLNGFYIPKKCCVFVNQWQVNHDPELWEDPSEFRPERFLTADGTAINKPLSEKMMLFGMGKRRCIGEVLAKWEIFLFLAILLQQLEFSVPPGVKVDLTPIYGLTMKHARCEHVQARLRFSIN

Escherichia coli [23] = assay: Antibacterial activity against wild-type Escherichia coli ATCC 25922 assessed as inhibition of bacterial growth incubated for 18 hrs; format: functional; conditions: read-out: MIC100
Providencia stuartii = assay: Antibacterial activity against Providencia stuartii ATCC 25826 assessed as inhibition of bacterial growth incubated for 18 hrs; format: functional; conditions: read-out: MIC100
Klebsiella pneumoniae [24] = assay: Antibacterial activity against Klebsiella pneumoniae ATCC BAA-2470 expressing NDM-1 assessed as inhibition of bacterial growth incubated for 18 hrs; format: functional; conditions: read-out: MIC100
Klebsiella pneumoniae [25] = assay: Antibacterial activity against Klebsiella pneumoniae ATCC 43816 infected in mouse urinary tract infection model assessed as reduction in bacterial burden in bladder at <10 mg/kg, iv administered every 4 hrs and measured after 26 hrs; format: functional, organism-based
Klebsiella pneumoniae [26] = assay: Antibacterial activity against Klebsiella pneumoniae ATCC 43816 infected in cyclophosphamide immunosuppressed Swiss albino mouse respiratory infection model at 30 to 90 mg/kg, iv administered every 2 hrs starting from 1 hr post infection and measured 5 hrs post infection; format: functional, organism-based; conditions: dose 30-90 mg/kg, time 4.0 hrs
[27] = AUClast in Swiss mouse kidney at 10 mg/kg, iv administered as single bolus dose and measured upto 24 hrs by LC-MS/MS analysis; format: ADME, organism-based

In the case of `CC[C@H](C)[C@@H](NC(=O)[C@@H](NC(=O)[C@H](CCC(=O)O)NC(=O)[C@H](Cc1ccccc1)NC(=O)[C@@H](CCN)NC(=O)[C@H](CCN)NC(=O)[C@H](CO)NC(=O)[C@@H](Cc1c[nH]c2ccccc12)NC(=O)[C@@H](CO)NC(=O)CNC(=O)[C@@H](CCN)NC(=O)[C@H](NC(=O)[C@H](C)N)C(C)C)C(C)C)C(=O)N[C@@H](C)C(=O)O`, the MIC (Escherichia coli [1]) is reported as 2 µg/mL (≈ 1.36 µM), the Activity (Escherichia coli [2]) is reported as “Active” and the MIC (Escherichia coli [3]) is reported as 4 µg/mL (≈ 2.73 µM). The Activity (Klebsiella pneumoniae [4]) was “Active”, the MIC (Escherichia coli [5]) was 2 µg/mL and the “fold change (FC)” value (Escherichia coli [6]) was 2. For the same compound, the Stability [7] was “Stable”, the MIC (Serratia marcescens) was 8 µg/mL (≈ 5.46 µM) and the MIC (Acinetobacter baumannii) was 32 µg/mL (≈ 21.8 µM). The MIC (Escherichia coli [8]) was 16 µg/mL (≈ 10.9 µM), the Kd (Lipopolysaccharide (LPS)) was 42.8 µM and the Activity (Klebsiella pneumoniae [9]) was “inactive”. The Activity (Escherichia coli [10]) was “Active”, the Activity [11] was “Non-Toxic” and the AUC(0-t) at 24 h [12] was 82.5 µg·h/mL. It also gave an MIC50 (Escherichia coli [13]) of 4 µg/mL (≈ 2.73 µM), an MIC90 (Escherichia coli [13]) of 8 µg/mL (≈ 5.46 µM) and a Cmax [14] of 166 µg/mL. The Activity (Escherichia coli [15]) was “Active”, the Activity (Cytochrome P450 3A4) was “Not Active” and the IC50 at 40 h [16] was greater than 170 µg/mL. For the same compound, the microsomal CLint [17] was 19 µL/min/mg, the “log(activity)” value (Escherichia coli [18]) was roughly 2 and the MIC (Staphylococcus aureus) was greater than 32 µg/mL. For the same compound, the Drug uptake [19] was “Active”, the hemolysis at 0.75 h, 400 ug/ml [20] was 9.1% and the Drug uptake [21] was “Active”. The Stability [22] was “Stable”, the MIC (Klebsiella aerogenes) was 8 µg/mL (≈ 5.46 µM) and the “inhibition (INH)” value (Cytochrome P450 1A2) was “Not Active”. For the same compound, the MIC (Escherichia coli [23]) was 4 µg/mL (≈ 2.73 µM), the MIC (Providencia stuartii) was greater than 32 µg/mL and the MIC (Klebsiella pneumoniae [24]) was 8 µg/mL (≈ 5.46 µM). For the same compound, the Activity (Klebsiella pneumoniae [25]) was “Active”, the Activity (Klebsiella pneumoniae [26]) was “Active” and the AUC(0-t) at 24 h [27] was 659 µg·h/mL.

— ChEMBL document CHEMBL5518181, “Studies of antibacterial activity (in vitro and in vivo) and mode of action for des-acyl tridecaptins (DATs)” (Eur J Med Chem, 2024)
